According to ChEMBL document CHEMBL4251644, “Synthesis and biological characterization of novel rose bengal derivatives with improved amphiphilicity for sono-photodynamic therapy” (Eur J Med Chem, 2018):
pIC50: −log10 of the molar value. Active and inactive are the calls of the source. The calls are words filed in the database; no cut-off is given here.

Columns and labels:
[1] = Drug uptake in human HepG2 cells at 5 uM after 2 hrs by confocal microscopy; assay type: ADME, cell-based; conditions: hepg2, 2 h
[2] = Drug uptake in mouse B16F10 cells assessed as localization in mitochondria at 5 uM after 1.5 hrs by MitoTracker Green staining-based fluorescence assay; assay type: ADME; conditions: b16-f10, 1.5 h
[3] = test system: HepG2; experiment: Photodynamic anticancer activity in human HepG2 cells preincubated for 2 hrs followed by light exposure at 27 J/cm2 for 30 mins and subsequent incubation for 24 hrs by MTT assay; conditions: HepG2, light or radiation study
[4] = test system: MCF7; experiment: Toxicity in human MCF7 cells up to 5 uM incubated in dark for 24 hrs by MTT assay; assay type: cell-based; conditions: mcf7, 24 h
[5] = test system: B16-F10; experiment: Photodynamic anticancer activity in mouse B16F10 cells preincubated for 2 hrs followed by light exposure at 27 J/cm2 for 30 mins and subsequent incubation for 24 hrs by MTT assay; conditions: B16-F10, light or radiation study
[6] = test system: HepG2; experiment: (§1) In vitro sonodynamic anticancer activity against human HepG2 cells at 25 uM preincubated for 2 hrs followed by exposure to ultrasound at 1.0 MHz and 2 W/cm2 intensity for 3 mins and subsequent incubation for 24 hrs by MTT assay; assay type: functional, cell-based
[7] = test system: B16-F10; experiment: Toxicity in mouse B16F10 cells up to 5 uM incubated in dark for 24 hrs by MTT assay; assay type: cell-based; conditions: b16-f10, 24 h
[8] = test system: HepG2; experiment: Induction of intracellular ROS generation in human HepG2 cells at 1 uM preincubated for 2 hrs followed by light exposure at 27 J/cm2 for 30 mins by DCFH-DA staining-based fluorescence analysis; assay type: functional, cell-based
[9] = Drug uptake in mouse B16F10 cells assessed as localization in lysosomes at 5 uM after 1.5 hrs by LysoTracker staining-based fluorescence assay; assay type: ADME, subcellular, Lysosome; conditions: b16-f10, 1.5 h
[10] = test system: HepG2; experiment: Induction of intracellular ROS generation in human HepG2 cells at 1 uM preincubated for 2 hrs followed by exposure to ultrasound at 1.0 MHz and 2 W/cm2 intensity for 3 mins followed by immediate irradiation with light at 27 J/cm2 for 30 mins by DCFH-DA staining-based fluorescence analysis; assay type: functional, cell-based
[11] = test system: HepG2; experiment: Toxicity in human HepG2 cells up to 5 uM incubated in dark for 24 hrs by MTT assay; assay type: cell-based; conditions: hepg2, 24 h
[12] = test system: HepG2; experiment: as §1, with “sono-photodynamic” for “sonodynamic”, “0.5” for “25”, “mins followed by immediate irradiation with light at 27 J/cm2 for 30 mins” for “mins”; assay type: functional, cell-based
[13] = Octanol-water partition coefficient, log P of the compound after 10 mins; assay type: physicochemical
[14] = test system: HepG2; experiment: Induction of intracellular ROS generation in human HepG2 cells at 1 uM preincubated for 2 hrs followed by exposure to ultrasound at 1.0 MHz and 2 W/cm2 intensity for 3 mins by DCFH-DA staining-based fluorescence analysis; assay type: functional, cell-based
[15] = test system: MCF7; experiment: Photodynamic anticancer activity in human MCF7 cells preincubated for 2 hrs followed by light exposure at 27 J/cm2 for 30 mins and subsequent incubation for 24 hrs by MTT assay; conditions: MCF7, light or radiation study

SMILES | Drug uptake [1] | Drug uptake [2] | pIC50 [3] | Activity [4] | pIC50 [5] | Activity [6] | Activity [7] | Activity [8] | Drug uptake [9] | Activity [10] | Activity [11] | Activity [12] | logP at 10 min [13] | Activity [14] | pIC50 [15]
COCCOCCOC(=O)CCCCCCCOC(=O)c1c(Cl)c(Cl)c(Cl)c(Cl)c1-c1c2cc(I)c(=O)c(I)c-2oc2c(I)c(O)c(I)cc12 | Active | Active | 6.55 | Non-Toxic | 6.11 | Active | Non-Toxic | Active | Active | Active | Non-Toxic | Active | 0.92 | inactive | 6.34
O=C(O)CCCCCCCOC(=O)c1c(Cl)c(Cl)c(Cl)c(Cl)c1-c1c2cc(I)c(=O)c(I)c-2oc2c(I)c(O)c(I)cc12 | Active | Active | 5.67 | Non-Toxic | 5.66 | – | Non-Toxic | – | Active | – | Non-Toxic | – | 0.91 | – | 5.54
O=C([O-])c1c(Cl)c(Cl)c(Cl)c(Cl)c1-c1c2cc(I)c(=O)c(I)c-2oc2c(I)c([O-])c(I)cc12.[Na+].[Na+] [ROSE BENGAL SODIUM] | Active | Active | < 5.30 | Non-Toxic | < 5.30 | – | Non-Toxic | – | Active | – | Non-Toxic | – | -0.56 | – | < 5.30
O=C(CCCCCCCOC(=O)c1c(Cl)c(Cl)c(Cl)c(Cl)c1-c1c2cc(I)c(=O)c(I)c-2oc2c(I)c(O)c(I)cc12)Nc1cccc2ccccc12 | Active | Active | 6.06 | Non-Toxic | 5.84 | inactive | Non-Toxic | – | Active | – | Non-Toxic | – | 0.94 | – | 5.90
O=C(CCCCCCCOC(=O)c1c(Cl)c(Cl)c(Cl)c(Cl)c1-c1c2cc(I)c(=O)c(I)c-2oc2c(I)c(O)c(I)cc12)Nc1cccc2cccnc12 | Active | Active | 6.21 | Non-Toxic | 5.92 | inactive | Non-Toxic | – | Active | – | Non-Toxic | – | 1.21 | – | 6.07
COCCOCCOCCOCCOC(=O)CCCCCCCOC(=O)c1c(Cl)c(Cl)c(Cl)c(Cl)c1-c1c2cc(I)c(=O)c(I)c-2oc2c(I)c(O)c(I)cc12 | Active | Active | 6.17 | Non-Toxic | 5.91 | Active | Non-Toxic | – | Active | – | Non-Toxic | – | 0.8 | – | 5.90
